Measured values reported in patent publication US20180313858A1, “QUANTIFICATION OF DRUGS IN BIOLOGICAL SAMPLES” (Indivior UK Limited, priority 2015, published 2018).
Marks after values point to notes of the source that are not given here.

Experiments:
[1] = clinical; conditions: human, in vivo
[2] = human, in vivo

In the case of `C=CCN1CC[C@]23c4c5ccc(O)c4O[C@H]2C(=O)CC[C@@]3(O)[C@H]1C5` [naloxone], the AUC(0-inf) [1] is reported as 0.0772 ng·h/mL, the AUC(0-t) [1] is reported as 0.0681 ng·h/mL and the Cmax [1] is reported as 0.0266 ng/mL. The Tmax [1] was 45 min, the plasma concentration [2] was 0.068 ng/mL and the “t1/2 (apparent terminal half-life)” value [2] was 2.21 (61.1)^f h. For the same molecule, the “time for which analyte was quantifiable in plasma” value [2] was 36 h.
